Results taken from patent US10422007B2, “Markers associated with Wnt inhibitors” (Novartis AG, priority 2013, dated 2019).

Legend:
[1] = system: Wnt1, 2, 3, 3A, 6, 7A, and 9A; test: Wnt dependent STF reporter assays with a set of canonical Wnts; assay type: cell-based
Description: (§1) The secreted Wnts subsequently function on Wnt receiving cells that leads to phosphorylation of the Wnt […] LRP6. […] PORCN was reported to affect pan-Wnt post-translational palmitoylation^17-18.

[2] = Plasma concentrations in tumor bearing nude mice; assay type: in vivo, mouse; conditions: single dose 3 mg/kg
Method: (§2) Nude mice bearing HN30 tumors were randomized according to tumor volume. […] Body weight was monitored daily and tumor sizes were assessed three times a week once tumors were palpable. Tumor sizes were determined by using caliper measurements. Tumor volumes were calculated with a formula (Length×Width×Height)/2. […] Blood sample (50 μL) was collected by serial retroorbital sampling at 1, 3, 7, 16 and 24 hours post-dose. The blood samples were centrifuged and plasma separated and frozen until analysis by LC/MS/MS.

HN30 tumors [3] = test: Pharmacodynamic markers in HN30 mouse xenograft tumors; assay type: in vivo
Method: AXIN2 mRNA and pLRP6 levels (determined as in Example 3) were utilized as pharmacodynamic markers to link the observed anti-tumor activity in the HN30 mouse xenograft model. […] A time delay was observed between the peak drug concentration (at 1 hour) and the maximum AXIN2 mRNA inhibition (at 10 hours). […] This pharmacokinetic (PK), PD, and efficacy relationship explains that the sustained pathway inhibition is not required for inducing tumor regression in this HN30 xenograft model, which may provide a key differentiation factor between tumors and normal tissues to achieve a therapeutic window.
For this a two-Step TaqMan RT-PCR analysis was performed on a PTC-200 peltier thermal cycler (MJ Research) and an ABI PRISM 7900HT Sequence Detection system (Applied Biosystems). Firstly, cDNA was synthesized using a High-Capacity cDNA Archive kit (Applied Biosystems) according to the manufacturer's instructions. Briefly, the RT reaction was prepared by mixing non-enzymatic, enzymatic components of the High-Capacity cDNA Archive kit and isolated RNA samples, followed with tandem incubation at 25° C. for 10 min and 37° C. for 120 min using a thermal cycler. Secondly, TaqMan analyses were performed using TaqMan Universal Master mix (Applied Biosystems) and AXIN2 and GAPDH probes (Applied Biosystems) according to the manufacturer's instructions. Briefly, the PCR reaction was prepared by mixing Universal Master mix, TaqMan probes and synthesized cDNA samples. The PCR cycle is as following: 95° C. for 10 min and 40 cycles of tandem incubation at 95° C. for 15 sec and 60° C. for 1 min. mRNA expression levels for the target genes were normalized to GAPDH mRNA levels and data were analyzed using SDS 2.0 software (Applied Biosystems) to calculate relative RNA quantities. Curve fitting was performed using Prism.
For GeneCard analysis, 96-well TaqMan array gene card was used according to the manufacturer's instruction. The gene card assays were run on ABI 7900HT Real-Time PCR System (Applied Biosystems) and analyzed with the ΔΔCt method.

Wnt3A secretion = test: HA-Wnt3A secretion in transfected 293A cells; assay type: cell-based; conditions: 293A cells transfected with HA-Wnt3A, various doses; lysate HA-Wnt3A spared
Description: as §1

Wnt signaling = test: Wnt co-culture reporter gene assay (TM3 Wnt-Luc cells with L-cell Wnt3A cells); assay type: cell-based, mouse
Method: Reporter gene assay: Mouse Leydig cell TM3 cells (obtained from American Type Culture Collection, ATCC, Manassas, Va.) are cultured in 1:1 mixture of Ham's F12 medium and Dulbecco's modified Eagle's medium (Gibco/Invitrogen, Carlsbad, Calif.) supplemented with 2.5% FBS (Gibco/Invitrogen, Carlsbad, Calif.) and 5% horse serum (Gibco/Invitrogen, Carlsbad, Calif.), 50 unit/mL penicillin and 50 μg/mL of streptomycin (Gibco/Invitrogen, Carlsbad, Calif.) at 37° C. with 5% CO2 in air atmosphere. TM3 cells in a 10 cm dish are co-transfected with 8 μg of STF-reporter plasmid containing a luciferase gene driven by Wnt-responsive elements and 2 μg of pcDNA3.1-Neo (Gibco/Invitrogen, Carlsbad, Calif.) with 30 μL of FuGENE6 (Roche Diagnostics, Indianapolis, Ind.) following the manufacturer's protocol. Stable cell lines (TM3 Wnt-Luc) were selected with 400 μg/mL of G418 (Gibco/Invitrogen, Carlsbad, Calif.). […]

cells = test: Cytotoxicity in cells; assay type: cell-based; conditions: up to 20 μM
Description: as §1

LRP6 phosphorylation = test: Wnt dependent phosphorylation of LRP6 in autocrine L-Wnt3A cells; assay type: cell-based, mouse
Description: as §1

HNSCC cell lines = test: Cancer cell line profiling with AXIN2 mRNA expression as readout (TaqMan); assay type: cell-based, human
Method: (§3) To identify human cancer cell lines that respond to porcupine inhibition, we profiled over 300 cell lines using the mRNA expression level of AXIN2 as readout. All cell lines were cultured in a humidified incubator at 37° C. with 5% CO2. HN30 cells (Wayne State University) and UMSCC cells (University of Michigan) are derived from human head neck squamous cell carcinoma (HNSCC) patient tumor samples. Total RNA or DNA was isolated using the Qiagen RNeasy and DNeasy blood and tissue kit, according to the manufacturer's instruction, respectively. Briefly, cells were disrupted by adding Buffer RLT and homogenized using QlAshredder spin columns. After one volume of 70% ethanol was added to the homogenized lysate and thoroughly mixed, the samples were transferred to RNeasy spin column. The flow-through was discarded after centrifuge. […]
(§4) For this a two-Step TaqMan RT-PCR analysis was performed on a PTC-200 peltier thermal cycler (MJ Research) and an ABI PRISM 7900HT Sequence Detection system (Applied Biosystems). […] The PCR cycle is as following: 95° C. for 10 min and 40 cycles of tandem incubation at 95° C. for 15 sec and 60° C. for 1 min. mRNA expression levels for the target genes were normalized to GAPDH mRNA levels and data were analyzed using SDS 2.0 software (Applied Biosystems) to calculate relative RNA quantities. […]

HN30 cells [4] = test: HN30 colony formation assay; assay type: cell-based, human; conditions: in vitro, crystal violet one week later
Method: In order to correlate the pathway inhibition with cellular function, the human HNSCC cell line HN30 was used for further in vitro and in vivo characterization. For colony formation assay, 2×10^3 cells per well were plated into 6-well cell culture plates with or without compound treatment. Cells were stained with crystal violet one week later.

SNU1076 xenograft = SNU1076 xenograft model in mice; assay type: in vivo, mouse; conditions: 5 mg/kg
Description: DTX3L (Deltex 3-like, also called BBAP, B-lymphoma- and BAL-associated protein) heterozygous nonsense mutation was identified in the HNSCC cell line SNU1076. DTX3L is an E3 ubiquitin ligase. Its cellular function in the mammalian Notch pathway is not clear, but its Drosophila homologue Deltex is a positive regulator of Notch signaling in Drosophila. […] Loss of DTX3L may provide an alternative mechanism to inactivate the Notch signaling pathway with subsequent activation of Wnt signaling.

HN30 cells [5] = test: Wnt-dependent AXIN2 message production in HN30 (TaqMan); assay type: cell-based; conditions: Homo sapiens; HN30, 48 hours
Method: as §3, §4

HN30 tumors [6] = test: Mouse subcutaneous xenograft model of HNSCC HN30, anti-tumor activity; assay type: in vivo
Method: as §2
Changes in tumor weight for each treated (T) and control (C) groups were measured and used to calculate growth delay as expressed by the T/C ratio. […] A similar result was obtained when dosed twice a day in this model with −44% T/C at a dose of 0.5 mg/kg twice a day.

SMILES: Cc1cc(-c2ncc(CC(=O)Nc3ccc(-c4cnccn4)cn3)cc2C)ccn1 [COMPOUND A, 2-[5-methyl-6-(2-methylpyridin-4-yl)pyridin-3-yl]-N-[5-(pyrazin-2-yl)pyridin-2-yl]acetamide]
- inhibitory activities against canonical Wnts in STF reporter assays [1]: comparable inhibitory activities against all tested Wnts
- time of peak drug concentration [2]: 1 h
- time of maximum effect on pLRP6 (HN30 tumors [3]; HN30 tumors): 7-10 hours post dose
- downregulation for LEF1 (HN30 tumors [3]; HN30 xenograft): 84%
- downregulation for NKD1 (HN30 tumors [3]; HN30 xenograft): 67%
- time of maximum AXIN2 mRNA inhibition (HN30 tumors [3]; single dose 3 mg/kg): 10 h
- reduction of AXIN2 mRNA expression in tumors (HN30 tumors [3]; single dose 3 mg/kg, between 5 and 10 hours post dose): 60-95%
- pLRP6 levels in the HN30 tumors (HN30 tumors [3]; time dependent, largely back to normal by 24 hours): substantially reduced
- abundance of HA-Wnt3A in the supernatant (Wnt3A secretion): potently attenuated
- IC50 (Wnt signaling; Mus musculus, luciferase reporter, 24 hours, read-out: IC50 of Wnt signaling inhibition in Wnt co-culture assay): 0.4 nM
- inhibitory effect after addition of exogenous Wnt3A conditioned medium (Wnt signaling; Wnt co-culture assay): rescued
- cytotoxicity in cells (cells): no major cytotoxicity
- Wnt dependent phosphorylation of LRP6 (LRP6 phosphorylation): strongly blocked
- cell lines harbouring HRAS mutations that responded (HNSCC cell lines; head and neck cancer cell lines): 4 of 5
- HNSCC cell lines showing pathway inhibition (HNSCC cell lines; responsive = greater than 50% AXIN2 mRNA reduction after 10-100 nM for 48 hours): 31 out of 96
- HN30 colony formation (HN30 cells [4]): strongly attenuated
- T/C (SNU1076 xenograft; 14 days of treatment): 25%
- reduction of AXIN2 (SNU1076 xenograft; SNU1076 xenograft): 70%
- IC50 (HN30 cells [5]): 0.3 nM
- T/C (HN30 tumors [6]; 0.1 mg/kg once a day, oral gavage, 14 days): 69%
- T/C (HN30 tumors [6]; 0.3 mg/kg once a day, oral gavage, 14 days): 26%
- T/C (HN30 tumors [6]; 0.5 mg/kg twice a day): −44%
- T/C (HN30 tumors [6]; 1.0 mg/kg once a day, oral gavage, 14 days): −31%
- T/C (HN30 tumors [6]; 3.0 mg/kg once a day, oral gavage, 14 days): −50%
- animal body weight loss (HN30 tumors [6]; 0.1-3.0 mg/kg once a day, 14 days): no significant animal body weight loss
